Activity calls are given as the source filed them. The calls are words filed in the database; no cut-off is given here.
Columns and labels:
[1] = biological target: T1, Lysine-specific histone demethylase 1A (Homo sapiens, UniProt O60341); experiment: Inhibition of recombinant LSD1 (unknown origin) preincubated for 10 mins in presence of H3K4Me2 measured after 30 mins by measuring fluorescence intensity by fluorescence based microplate reader
MGC-803 = experiment: Antiproliferative activity against human MGC-803 cells incubated for 48 hrs measured by MTT assay; format: functional, cell-based; conditions: MGC-803, 48 h
KYSE-450 = experiment: Antiproliferative activity against human KYSE-450 cells incubated for 48 hrs measured by MTT assay; format: functional, cell-based; conditions: KYSE-450, 48 h
HCT-116 = experiment: Antiproliferative activity against human HCT-116 cells incubated for 48 hrs measured by MTT assay; format: functional, cell-based; conditions: HCT-116, 48 h
[2] = biological target: T1, Lysine-specific histone demethylase 1A; experiment: Inhibition of LSD1 in human MGC-803 cells assessed as increase in methylation of H3K4 at 24 micromol/L; format: cell-based; conditions: dose 24.0 µmol/L
[3] = biological target: T1, Lysine-specific histone demethylase 1A; experiment: Inhibition of LSD1 in human MGC-803 cells assessed as increase in methylation of H3K9 at 24 micromol/L; format: cell-based; conditions: dose 24.0 µmol/L

Structure (SMILES) | IC50 [1] [nM] | IC50 (MGC-803) [µM] | IC50 (KYSE-450) [µM] | IC50 (HCT-116) [µM] | inhibition [2] | inhibition [3]
CN1CCN(c2ccc(NC(=O)c3cccc(CN[C@@H]4C[C@H]4c4ccc(F)c(F)c4)c3)cc2)CC1 | 249 |  |  |  |  | 
CCN1CCN(c2ccc(NC(=O)c3cccc(CN[C@@H]4C[C@H]4c4ccc(F)c(F)c4)c3)cc2)CC1 | 42.8 | 28 | 24.8 | 28.1 |  | 
CN1CCN(S(=O)(=O)c2cccc(NC(=O)c3cccc(CN[C@@H]4C[C@H]4c4ccc(F)c(F)c4)c3)c2)CC1 | 325 |  |  |  |  | 
O=C(c1cccc(CN[C@@H]2C[C@H]2c2ccc(F)c(F)c2)c1)N1CCN(c2ccccc2)CC1 | 56.3 |  |  |  |  | 
COCCNC(=O)c1cccc(CN[C@@H]2C[C@H]2c2ccc(F)c(F)c2)c1 | 231 |  |  |  |  | 
NC(=O)CNC(=O)c1cccc(CN[C@@H]2C[C@H]2c2ccc(F)c(F)c2)c1 | 108 |  |  |  |  | 
c1ccc([C@@H]2C[C@H]2NC2CCNCC2)cc1 |  | > 64 | > 64 | > 64 | Active | Active
O=C(Nc1ccc(N2CCOCC2)c(F)c1)c1cccc(CN[C@@H]2C[C@H]2c2ccc(F)c(F)c2)c1 | 249 |  |  |  |  | 
O=C(O)c1ccc(CN2CCC(CN[C@@H]3C[C@H]3c3ccccc3)CC2)cc1 [GSK2879552] |  | > 64 | > 64 | > 64 |  | 
Cc1ccc(NC(=O)c2cccc(CN[C@@H]3C[C@H]3c3ccc(F)c(F)c3)c2)cc1 | 36.4 |  |  |  |  | 
CCCCNC(=O)c1cccc(CN[C@@H]2C[C@H]2c2ccc(F)c(F)c2)c1 | 203 |  |  |  |  | 
O=C(c1cccc(CN[C@@H]2C[C@H]2c2ccc(F)c(F)c2)c1)N1CCc2ccccc21 | 26.1 | 33.7 | 51.5 | 50.1 |  | 
COC(=O)c1cccc(NC(=O)c2cccc(CN[C@@H]3C[C@H]3c3ccc(F)c(F)c3)c2)c1 | 32.1 | 50.1 | 67.9 | 45.7 |  | 
O=C(NCC1CCNCC1)c1cccc(CN[C@@H]2C[C@H]2c2ccc(F)c(F)c2)c1 | 173 |  |  |  |  | 
O=C(c1cccc(CN[C@@H]2C[C@H]2c2ccc(F)c(F)c2)c1)N1CC2CCCCC2C1 (stereo not given in full) | 58 | 51.2 | 68.9 | 55.7 |  | 
O=C(O)c1cccc(CN[C@@H]2C[C@H]2c2ccc(F)c(F)c2)c1 | 517 |  |  |  |  | 
NCC1CCN(C(=O)c2cccc(CN[C@@H]3C[C@H]3c3ccc(F)c(F)c3)c2)CC1 | 181 | > 128 | > 128 | > 128 |  | 
CN(Cc1ccccc1)C(=O)c1cccc(CN[C@@H]2C[C@H]2c2ccc(F)c(F)c2)c1 | 42.1 |  |  |  |  | 
O=C(Nc1cccc(S(=O)(=O)N2CCOCC2)c1)c1cccc(CN[C@@H]2C[C@H]2c2ccc(F)c(F)c2)c1 | 32.6 | 29.7 | 38.7 | 36.1 |  | 
O=C(O)c1cccc(NC(=O)c2cccc(CN[C@@H]3C[C@H]3c3ccc(F)c(F)c3)c2)c1 | 479 |  |  |  |  | 
NC(=O)C1CCN(C(=O)c2cccc(CN[C@@H]3C[C@H]3c3ccc(F)c(F)c3)c2)CC1 | 108 | > 128 | > 128 | > 128 |  | 
O=C(NC1CC(F)(F)C1)c1cccc(CN[C@@H]2C[C@H]2c2ccc(F)c(F)c2)c1 | 115 | 54.9 | 64.5 | 58.2 |  | 
CN1CCN(C(=O)c2cccc(CN[C@@H]3C[C@H]3c3ccc(F)c(F)c3)c2)CC1 | 222 |  |  |  |  | 
O=C(c1cccc(CN[C@@H]2C[C@H]2c2ccc(F)c(F)c2)c1)N1CCC(O)CC1 | 141 |  |  |  |  | 
NC1CCN(C(=O)c2cccc(CN[C@@H]3C[C@H]3c3ccc(F)c(F)c3)c2)CC1 | 668 |  |  |  |  | 
